Experimental data from patent publication US8981131B2, “Tricyclic compounds for the treatment of inflammatory disorders” (Piramal Enterprises Limited, priority 2007, dated 2015).
Counter-ions that a name gives are not always drawn.

Key:
Details in all cases: LPS (1 μg/mL)-stimulated hPBMCs, 5 hours, ELISA
TNF-α = TNF-α inhibition in LPS-stimulated human peripheral blood mononuclear cells (primary screening); assay type: cell-based
Procedure: (§1) TNF-α production by lipopolysaccharides (LPS) in hPBMCs was measured according to the method described by Jansky, L. et al (Physiol. Res. 52: 593-598, 2003), incorporated herein by reference. Blood was collected from healthy donors into Potassium EDTA vacutainer tubes (BD vacutainer). The PBMCs were isolated using gradient centrifugation in Histopaque-1077 solution (Sigma). Isolated PBMCs were suspended in RPMI 1640 culture medium (Gibco BRL, Pasley, UK) containing 10% fetal bovine serum (FBS) (Hyclone, Utah, USA), 100 U/ml penicillin (Sigma Chemical Co. St Louis, Mo.) and 100 μg/ml streptomycin (Sigma Chemical Co. St Louis, Mo.). The cell concentration was adjusted to 1×10^6 cells/mL. The viability as determined by trypan blue dye exclusion was uniformly ≧98%. The cell suspension (100 μL) was added to the wells of a 96-well culture plate. Following cell plating, 79 μL of the culture medium and 1 μL of eight different concentrations of the test compounds (final concentration 0.03, 0.1, 0.3, 1, 3, 10, 30, 100 μM) dissolved in DMSO (dimethylsulfoxide, Sigma, Mo., USA) were added to the cells. The final concentration of DMSO was adjusted to 0.5%. The vehicle (0.5% DMSO) was used as control. Rolipram (30, 100 μM) was used as a standard compound. The plates were incubated for 30 min at 37° C. in an atmosphere of 5% CO2. Finally, 20 μL (10 μg/mL) per well of LPS, (Escherchia coli 0127:B8, Sigma Chemical Co., St. Louis, Mo.) was added, for a final concentration of 1 μg/mL. The plates were incubated at 37° C. for 5 hours in an atmosphere of 5% CO2. To assess the cytotoxic effect of the test compounds, the cellular viability test was performed using MTS (3-(4,5-dimethylthiazol-2-yl)-5-(3-carboxymethoxyphenyl)-2-(4-sulfonyl)-2H-tetrazolium) reagent after 5 hours of incubation. Supernatants were harvested and assayed for TNF-α, IL-1β, IL-6 and IL-8 by ELISA as described by the manufacturer. (OptiEIA ELISA sets, BD Biosciences, Pharmingen). The 50% inhibitory concentration (IC50) values were calculated by a nonlinear regression method using GraphPad software (Prism 3.03)

IL-1β = IL-1β released by LPS-stimulated hPBMCs; assay type: cell-based, Human
Procedure: as §1

IL-6 = IL-6 released by LPS-stimulated hPBMCs; assay type: cell-based, Human
Procedure: as §1

IL-8 = IL-8 released by LPS-stimulated hPBMCs; assay type: cell-based, Human
Procedure: as §1

Row | IC50 (TNF-α; Homo sapiens, PBMC) [nM] | SMILES | other results
1 | 1100 | CC1=C2[C@@H]3OC(=O)C(CN4CCN(Cc5c(F)cccc5C(F)(F)F)CC4)C3(O)CC[C@@]2(C)CCC1 (stereo partly drawn) [Compound of example 36, (5aR,9bS)-3-((4-(2-fluoro-6-(trifluoromethyl)benzyl)piperazin-1-yl)methyl)-3a-hydroxy-5a,9-dimethyl-3,3a,4,5,5a,6,7,8-octahydronaphtho[1,2-b]furan-2(9bH)-one] | 
2 | 300 | CC1=C2[C@@H]3OC(=O)C(CN4CCN(Cc5ccccc5)CC4)C3(O)CC[C@@]2(C)CCC1 (stereo partly drawn) [Compound of example 27, (5aR,9bS)-3-((4-Benzylpiperazin-1-yl)methyl)-3a-hydroxy-5a,9-dimethyl-3,3a,4,5,5a,6,7,8-octahydronaphtho[1,2-b]furan-2(9bH)-one] | 
3 | 800 | COc1cc(CN2CCN(CC3C(=O)O[C@H]4C5=C(C)CCC[C@]5(C)CCC34O)CC2)c(CO)c(OC)c1 (stereo partly drawn) [Compound of example 38, (5aR,9bS)-3a-hydroxy-3-((4-(2-(hydroxymethyl)-3,5-dimethoxybenzyl)piperazin-1-yl)methyl)-5a,9-dimethyl-3,3a,4,5,5a,6,7,8-octahydronaphtho[1,2-b]furan-2(9bH)-one] | 
4 | 800 | CC1=C2[C@@H]3OC(=O)C(CN4CCN(Cc5c(C)cccc5C)CC4)C3(O)CC[C@@]2(C)CCC1 (stereo partly drawn) [Compound of example 30, (5aR,9bS)-3-((4-(2,6-dimethylbenzyl)piperazin-1-yl)methyl)-3a-hydroxy-5a,9-dimethyl-3,3a,4,5,5a,6,7,8-octahydronaphtho[1,2-b]furan-2(9bH)-one] | 
5 | 800 | CC1=C2[C@@H]3OC(=O)C(CN4CCN(c5ccccn5)CC4)C3(O)CC[C@@]2(C)CCC1 (stereo partly drawn) [Compound of example 53, (5aR,9bS)-3a-Hydroxy-5a,9-dimethyl-3-((4-(pyridin-2-yl)piperazin-1-yl)methyl)-3,3a,4,5,5a,6,7,8-octahydronaphtho[1,2-b]furan-2(9bH)-one] | 
6 | 700 | CCOC(=O)N1CCN(CC2C(=O)O[C@H]3C4=C(C)CCC[C@]4(C)CCC23O)CC1 (stereo partly drawn) [Compound of example 48, Ethyl 4-(((5aR,9bS)-3a-hydroxy-5a,9-dimethyl-2-oxo-2,3,3a,4,5,5a,6,7,8,9b-decahydronaphtho[1,2-b]furan-3-yl)methyl)piperazine-1-carboxylate hydrochloride] | 
7 | 300 | CC1=C2[C@@H]3OC(=O)C(CN4CCN(Cc5ccccc5F)CC4)C3(O)CC[C@@]2(C)CCC1 (stereo partly drawn) [Compound of example 33, (5aR,9bS)-3-((4-(2-fluorobenzyl)piperazin-1-yl)methyl)-3a-hydroxy-5a,9-dimethyl-3,3a,4,5,5a,6,7,8-octahydronaphtho[1,2-b]furan-2(9bH)-one] | 

Further lines, the molecule ahead of its results:

Row | SMILES | IC50 (TNF-α; Homo sapiens, PBMC) [nM] | other results
8 | CC1=C2[C@@H]3OC(=O)C(CN4CCCCC4)C3(O)CC[C@@]2(C)CCC1 (stereo partly drawn) [Compound of example 17, (5aR,9bS)-3a-Hydroxy-5a,9-dimethyl-3-(piperidin-1-ylmethyl)-3,3a,4,5,5a,6,7,8-octahydronaphtho[1,2-b]furan-2(9bH)-one] | 700 | IC50 (IL-1β; Homo sapiens): 260 nM; IC50 (IL-6; Homo sapiens): 3000 nM; IC50 (IL-8; Homo sapiens): 27600 nM
9 | CC12CCCC3(C)OC13C1OC(=O)C(CN3CCCCC3)C1(O)CC2 (centres unmarked) [Compound of example 18, 13-(Piperidin-1-yl)-4,5-epoxy-7-hydroxyeudesm-6,12-olide] |  | IC50 (TNF-α): 400 nM; IC50 (IL-1β): 200 nM; IC50 (IL-6): 900 nM; IC50 (IL-8): 9200 nM
10 | CC1=C2[C@H]3OC(=O)C(CNCC4C(=O)O[C@H]5C6=C(C)CCC[C@]6(C)CCC45O)C3(O)CC[C@]2(C)CCC1 (stereo partly drawn) [Compound of example 55, (5aS,9bR)-3a-Hydroxy-3-((((5aR,9bS)-3a-hydroxy-5a,9-dimethyl-2-oxo-2,3,3a,4,5,5a,6,7,8,9b-decahydronaphtho[1,2-b]furan-3-yl)methylamino)methyl)-5a,9-dimethyl-3,3a,4,5,5a,6,7,8-octahydronaphtho[1,2-b]furan-2(9bH)-one hydrochloride] | 1200 | IC50 (IL-1β; Homo sapiens): 310 nM; IC50 (IL-6; Homo sapiens): 3100 nM; IC50 (IL-8; Homo sapiens): 29000 nM
11 | CC1=C2[C@@H]3OC(=O)C(CNC4C(O)C(O)C(CO)O[C@H]4O)C3(O)CC[C@@]2(C)CCC1 (stereo partly drawn) [Compound of example 59, (5aR,9bS)-3a-Hydroxy-5a,9-dimethyl-3-(((2R)-2,4,5-trihydroxy-6-(hydroxymethyl)tetrahydro-2H-pyran-3-ylamino)methyl)-3,3a,4,5,5a,6,7,8-octahydronaphtho[1,2-b]furan-2(9bH)-one] | 400 | 
12 | CC(=O)OCC1(O)C(=O)O[C@H]2C3=C(C)CCC[C@]3(C)CCC21O (stereo partly drawn) [Compound of example 3, ((5aR,9bS)-3,3a-Dihydroxy-5a,9-dimethyl-2-oxo-2,3,3a,4,5,5a,6,7,8,9b-decahydronaphtho[1,2-b]furan-3-yl)methyl acetate] | 500 | 
13 | CC1=C2[C@@H]3OC(=O)C(CN4CCN(CC5C(=O)O[C@H]6C7=C(C)CCC[C@]7(C)CCC56O)CC4)C3(O)CC[C@]2(C)CCC1 (stereo partly drawn) [Compound of example 54, (5aS,9bS)-3a-Hydroxy-3-((4-(((5aR,9bS)-3a-hydroxy-5a,9-dimethyl-2-oxo-2,3,3a,4,5,5a,6,7,8,9b-decahydronaphtho[1,2-b]furan-3-yl)methyl)piperazin-1-yl)methyl)-5a,9-dimethyl-3,3a,4,5,5a,6,7,8-octahydronaphtho[1,2-b]furan-2(9bH)-one] | 600 | IC50 (IL-1β; Homo sapiens): 200 nM; IC50 (IL-6; Homo sapiens): 2100 nM; IC50 (IL-8; Homo sapiens): 11700 nM
14 | CC1=C2[C@@H]3OC(=O)C(CN4CC[S+]([O-])CC4)C3(O)CC[C@@]2(C)CCC1 (stereo partly drawn) [Compound of example 25, (5aR,9bS)-3a-Hydroxy-5a,9-dimethyl-3-(thiomorpholino-1-oxide-methyl)-3,3a,4,5,5a,6,7,8-octahydronaphtho[1,2-b]furan-2(9bH)-one] |  | IC50 (TNF-α): 3300 nM
15 | CC1=C2[C@@H]3OC(=O)C(CN(C)CC(O)c4ccc(O)cc4)C3(O)CC[C@@]2(C)CCC1 (stereo partly drawn) [Compound of example 60, (5aR,9bS)-3a-Hydroxy-3-(((2-hydroxy-2-(4-hydroxyphenyl)ethyl)(methyl)amino)methyl)-5a,9-dimethyl-3,3a,4,5,5a,6,7,8-octahydronaphtho[1,2-b]furan-2(9bH)-one] | 200 | 
16 | COC(=O)CNCC1C(=O)O[C@H]2C3=C(C)CCC[C@]3(C)CCC12O (stereo partly drawn) [Compound of example 58, Methyl 2-(((5aR,9bS)-3a-hydroxy-5a,9-dimethyl-2-oxo-2,3,3a,4,5,5a,6,7,8,9b-decahydronaphtho[1,2-b]furan-3-yl)methylamino)acetate] | 2000 | 
17 | CC1=C2[C@@H]3OC(=O)C(CN4CCOCC4)C3(O)CC[C@@]2(C)CCC1 (stereo partly drawn) [Compound of example 22, (5aR,9bS)-3a-Hydroxy-5a,9-dimethyl-3-(morpholinomethyl)-3,3a,4,5,5a,6,7,8-octahydronaphtho[1,2-b]furan-2(9bH)-one] | 700 | 
